Test results from US20230257430A1, “RECOMBINANT PROTEINS FOR QUANTIFICATION OF PROTEIN LEVELS” (Genentech, Inc., priority 2020, published 2023).
Peptide text beside a SMILES is read from it. * marks the point of attachment. Cbz = O=C(OCc1ccccc1)*; CH2F = FC*

Key:
Assay type in all cases: cell-based, human
[1] = tested on: A549 parental, ARAF KO, BRAF KO, RAF1 (CRAF) KO cancer cells; test: Soft agar colony formation growth assay with pan-RAF inhibitor in RAF-depleted RASK (KRAS) mutant cells; details: 100 nM, 1 μM, 10 μM
Method: FIG. 4J is a set of photomicrographs showing the results of a soft agar colony formation growth assay for A549 cells (parental) or ARAF knockout (KO), BRAF KO, or RAF1 (CRAF) KO cancer cells treated with the pan-RAF inhibitor AZ-628 at 100 nm, 1 μM, and 10 μM concentrations. Colonies were stained with MTT dye and imaged using a GelCount imager.
FIG. 6G is a set of photomicrographs showing the results of a soft agar colony formation growth assay for the indicated cancer cells treated with non-targeting shRNAs (shNT) or shRNA targeting ARAF (shARAF), BRAF (shBRAF), or RAF1 (CRAF) (shCRAF) and treated with the pan-RAF inhibitor AZ-628 at 100 nm, 1 μM, and 10 μM concentrations or a DMSO control.
It was hypothesized that the ratio of RAF1 (CRAF):ARAF versus RAF1 (CRAF):BRAF heterodimers may be important in the growth of RASK (KRAS) mutant tumors, and that this ratio may impact the efficacy of RAF kinase inhibition. To test this hypothesis, RASK (KRAS) mutant cells depleted of individual members of the RAF kinases (ARAF, BRAF or RAF1 (CRAF)) were treated with a pan-RAF dimer inhibitor (AZ-628). […] Taken together, RAF1 (CRAF) dimerization partners appear to dictate sensitivity to MAPK inhibition.

[2] = tested on: CRAF:BRAF and CRAF:ARAF dimers; test: PIKES targeted analysis (PRM-MS) of immunoprecipitated FLAG-tagged CRAF wild-type; details: 250 nM, 24 hours
Source text: Collected eluates were then combined with 100 fmol of QconCAT reagent and samples were processed similarly to the cell line analysis above for PRM analysis. For PRM analysis, RAW files were loaded onto Skyline (v19.1). A target peptide list was generated from the QconCAT peptides for both unlabeled and heavy-labeled peptides with transition setting filtered for precursor charges 2 and 3, ion charges 1 and 2, and y-ion types. Selected peaks from product ions were reviewed manually. Both MS1 and MS/MS filtering were set to Orbitrap mass analyzer with 60,000 resolving power. Signal was summed for the top three product ions and normalized to the heavy labeled QconCAT internal standard for peptide quantification.

[3] = tested on: A549 RAF1 (CRAF) knockout (CRAF KO) cancer cells; test: Soft-agar colony formation assay in A549 RAF1 (CRAF) knockout cells with MEK or ERK inhibitor dose titration; details: for cell survival of RAF1 (CRAF)-depleted cells: increasing the dose; for cell survival of RAF1 (CRAF) ablated RASK (KRAS) mutant cells: low-dose treatment
Source text: (§1) FIG. 11F is a set of photomicrographs showing the results of a soft-agar colony formation assay in A549 parental and RAF1 (CRAF) knockout (CRAF KO) cancer cells upon treatment with DMSO or a MEK inhibitor (GDC-0973) at the indicated dose titrations. The colonies were labeled with MTT reagent and imaged using a GelCount imager.
as §1, with “11G” for “11F”, “an ERK” for “a MEK”, “(GDC-0994)” for “(GDC-0973)”
Within the MAPK pathway, expression of BRAF^D631A mutation upon BRAF^wild-type loss induces cellular toxicity which impedes tumor development of RASK (KRAS) mutant lung tumors (Nieto et al., Nature, 548: 239-243, 2017; Yao et al., Nature, 548: 234-238, 2017). Importantly, pharmacological inhibition of ERK rescued tumor growth in this context (Nieto et al., Nature, 548: 239-243, 2017; Yao et al., Nature, 548: 234-238, 2017). […] Thus, oncogenic cellular stress induced by ARAF catalytic activity could be inhibited by low-dose MAPK inhibition, thereby promoting survival of RASK (KRAS) mutant cells.

MAPK signaling = test: Western blot analysis of MAPK pathway components in RASK (KRAS) mutant cancer cells; details: 250 nM, 24 hours
RAF1:BRAF heterodimers = test: Immunoprecipitation of FLAG-tagged RAF1 (CRAF) in A549 RAF1 (CRAF) knockout cells; details: 250 nM, 24 hours
Source text: Eluates were co-immunoprecipitated and blotted with the indicated antibodies.
To test whether RAF1 (CRAF) kinase activity is required for RASK (KRAS) mutant tumor cell growth, knockout cell lines of the three RAF isoforms were generated in a RASK (KRAS) mutant background. […] In the RAF1 (CRAF) knockout RASK (KRAS) mutant cells, stable expression of a panel of RAF1 (CRAF) mutants was established. […] Expression of RAF1 (CRAF) kinase-dead mutants including RAF1^D468N, RAF1^D486A, and RAF1^K375M(CRAF^D468N, CRAF^D486A, and CRAF^K375M) reduced pERK levels compared to cells expressing RAF1^wild-type (CRAF^wild-type) or RAF1^S259A (CRAF^S259A), a mutation which renders the RAF1 (CRAF) kinase constitutively active (FIG. 5C). RAF1 (CRAF) kinase-dead mutants either partially (RAF1^D468N (CRAF^D468N), RAF1^D486A(CRAF^D486A)) or fully (RAF1^K375M (CRAF^K375M)) rescued colony growth in RAF1 (CRAF)-deficient RASK (KRAS) mutant cells (FIGS. 4B and 5D). […] Functionally, the CRAF^K375M mutation completely abrogated MEK phosphorylation compared to CRAF^wild-type, but still rescued colony growth in RAF1-deficient RASK (KRAS) mutant cells (FIGS. 4C and 5C). […] Consistent with this, RAF1 (CRAF) kinase-dead mutants behaved like the RAF1 (CRAF) knockout, and were unable to rescue cell growth inhibition in the presence of MEK inhibitor compared to the cells expressing CRAF^wild-type (FIGS. 5E and 5F). […]

[4] = tested on: ERK downstream substrates (MAPK target gene set); test: mRNA sequencing of MAPK target gene set in RASK (KRAS) mutant cells; details: RNA-sequencing
Method: FIG. 2E is a graph showing the log 2 fold change in expression of a MAPK target gene set determined by mRNA sequencing in cancer cells treated with shARAF, shBRAF, or shCRAF. Cells were treated with 0.5 μg/mL doxycycline (DOX) for 72 hours. Cells were treated with a MEK inhibitor (GDC-0973) for 6 hours, 250 nM (n=3) or an ERK inhibitor (GDC-0994). Data are normalized to a non-targeting control (shNT) and DMSO (no DOX).
To confirm sustained MAPK activity in spite of RAF1 (CRAF) depletion, we performed a gene expression analysis for the MAPK downstream effectors DUSP6 and SPRTY upon RAF1 (CRAF) depletion in the examined RASK (KRAS) mutant cells lines. […] In order to delineate pathway alterations upon RAF1 (CRAF) depletion versus MAPK inhibition, RNA-sequencing analysis was performed. […] Thus, RAF kinases compensate to sustain MAPK signaling in comparison to MAPK inhibition.

[5] = tested on: A549 cancer cells depleted of RAF1 (CRAF); test: Soft-agar colony formation assay in A549 cells treated with shCRAF and co-treated with cell death inhibitors; details: single agent; ZVAD-FMK 20 μM, NEC1 30 μM, Bafilomycin 50 nM
Method: FIG. 12G is a set of photomicrographs showing the results of a soft-agar colony formation assay in A549 cancer cells upon treatment with shCRAF and co-treatment with the indicated inhibitors. […] Cells were co-treated with DMSO or inhibitors for cellular apoptosis (ZVAD-FMK, 20 μM), necroptosis (NEC1, 30 μM) or a combination of both (ZVAD-FMK, 10 μM; NEC1, 10 μM) and an autophagy inhibitor (Bafilomycin, 50 nM).
As ARAF catalytic function inhibits cell growth upon RAF1 (CRAF) loss, mechanisms by which ARAF limits growth of RASK (KRAS) mutant cells were investigated. Given that MAPK inhibition is associated with induction of cellular apoptosis (Yen et al., Cancer Cell, 34: 611-625, 2018), it was hypothesized that RAF1 (CRAF) ablation induces cell death, similar to MAPK inhibition in RASK (KRAS) mutants. […] Additionally, RAF1 (CRAF) ablation in a […] isogenic RASK (KRAS) mutant cell line (HCT116 p21^−/−) rescued cell growth inhibition mediated upon RAF1 (CRAF) loss (FIG. 12A). […] A chemical inhibitor approach was adopted to test whether cell growth inhibition upon RAF1 (CRAF) loss could be rescued by the treatment with apoptosis or autophagic inhibitors. […] Finally, a Gene Set Enrichment Analysis (GSEA) of targets involved in the apoptosis pathway was performed, but no significant enrichment of any apoptosis target gene set was observed upon acute depletion of ARAF, BRAF or RAF1 (CRAF) (FIG. 12I). […] Thus, RAF1 (CRAF) depletion promotes p21-mediated cell cycle arrest in RASK (KRAS) mutant cancer cells. Further, co-depletion of RAF1 (CRAF) and ARAF in RASK (KRAS) mutant cells abrogated the expression levels of p21 (FIG. 4E).

| Compound | cell survival of RAF1 (CRAF)-depleted cells [3] | cell survival of RAF1 (CRAF) ablated RASK (KRAS) mutant cells [3] | effect on expression of ERK downstream substrates (MAPK target gene set) [4] | rescue of cell growth in RAF1 (CRAF)-depleted RASK (KRAS) mutant cells [5] | other results |
| --- | --- | --- | --- | --- | --- |
| Cc1ccc(NC(=O)c2cccc(C(C)(C)C#N)c2)cc1Nc1ccc2ncn(C)c(=O)c2c1 [AZ-628] |  |  |  |  | sensitivity of colony growth to RAF dimer inhibition ([1]; ARAF ablation in RASK (KRAS) mutant cells): sensitized cells to RAF dimer inhibition; sensitivity of colony growth to RAF dimer inhibition ([1]; BRAF ablation in RASK (KRAS) mutant cells): less sensitive to RAF dimer inhibition |
| O=C(c1ccc(F)c(F)c1Nc1ccc(I)cc1F)N1CC(O)([C@@H]2CCCCN2)C1 [GDC-0973] | limited cell survival | promoted cell survival | induced suppression of ERK downstream substrates |  | preferential RAF dimer association of CRAF wild-type (PIKES) [2]: promoted increased CRAF: BRAF dimers in comparison to CRAF: ARAF dimers; effect on MAPK signaling (pMEK, pERK Western blot) (MAPK signaling): suppresses MAPK signaling; RAF heterodimers co-immunoprecipitated with FLAG-CRAF (RAF1:BRAF heterodimers): enriched for RAF1:BRAF heterodimers |
| Cn1nccc1Nc1nccc(-c2ccn([C@H](CO)c3ccc(Cl)c(F)c3)c(=O)c2)n1 [GDC-0994] | limited cell survival | promoted cell survival | induced suppression of ERK downstream substrates |  |  |
| CN1C(=O)C(Cc2c[nH]c3ccccc23)NC1=S (centres unmarked) [NEC1] |  |  |  | did not rescue cell growth |  |
| COC(=O)C[C@H](NC(=O)[C@H](C)NC(=O)[C@@H](NC(=O)OCc1ccccc1)C(C)C)C(=O)CF [Z-VAD-FMK] (Cbz-Val-Ala-Asp(OMe)-CH2F) |  |  |  | did not rescue cell growth |  |
| CO/C1=C\C(C)=C\[C@@H](C)[C@@H](O)[C@@H](C)C/C(C)=C/C=C/[C@H](OC)[C@@H]([C@@H](C)[C@@H](O)[C@H](C)[C@@]2(O)C[C@@H](O)[C@H](C)[C@@H](C(C)C)O2)OC1=O [bafilomycin] |  |  |  | did not rescue cell growth |  |
